Legend:
Angiotensin II receptor = biological target: T1, Angiotensin II receptor (Rattus norvegicus, UniProt P29089+P25095+P35351); test: Tested for binding affinity by measuring displacement of [125I]-Sar1 Ile8 angiotensin II from rat adrenal cortical membranes; assay type: cell membranes, Membrane
T1 sequence (P29089 whole entry): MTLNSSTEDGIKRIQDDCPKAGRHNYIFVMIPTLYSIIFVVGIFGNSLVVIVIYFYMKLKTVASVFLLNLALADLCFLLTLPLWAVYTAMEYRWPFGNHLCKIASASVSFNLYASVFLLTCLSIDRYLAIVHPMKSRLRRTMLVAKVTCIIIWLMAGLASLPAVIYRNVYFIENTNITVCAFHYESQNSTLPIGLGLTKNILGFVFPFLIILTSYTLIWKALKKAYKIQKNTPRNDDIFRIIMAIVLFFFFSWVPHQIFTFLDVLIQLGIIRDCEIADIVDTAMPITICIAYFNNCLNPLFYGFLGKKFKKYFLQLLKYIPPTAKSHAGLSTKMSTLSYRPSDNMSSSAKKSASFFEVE
T1 sequence (P25095 whole entry): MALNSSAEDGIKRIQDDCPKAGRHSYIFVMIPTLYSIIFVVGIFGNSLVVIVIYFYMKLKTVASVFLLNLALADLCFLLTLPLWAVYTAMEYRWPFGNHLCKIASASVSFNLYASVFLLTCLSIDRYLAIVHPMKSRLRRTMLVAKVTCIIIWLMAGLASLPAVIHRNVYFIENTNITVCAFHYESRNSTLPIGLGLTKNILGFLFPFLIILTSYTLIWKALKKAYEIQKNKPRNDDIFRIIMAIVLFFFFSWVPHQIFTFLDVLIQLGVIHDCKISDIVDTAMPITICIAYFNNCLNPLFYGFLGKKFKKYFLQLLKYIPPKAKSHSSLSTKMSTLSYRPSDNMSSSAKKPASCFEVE
T1 sequence (P35351 whole entry): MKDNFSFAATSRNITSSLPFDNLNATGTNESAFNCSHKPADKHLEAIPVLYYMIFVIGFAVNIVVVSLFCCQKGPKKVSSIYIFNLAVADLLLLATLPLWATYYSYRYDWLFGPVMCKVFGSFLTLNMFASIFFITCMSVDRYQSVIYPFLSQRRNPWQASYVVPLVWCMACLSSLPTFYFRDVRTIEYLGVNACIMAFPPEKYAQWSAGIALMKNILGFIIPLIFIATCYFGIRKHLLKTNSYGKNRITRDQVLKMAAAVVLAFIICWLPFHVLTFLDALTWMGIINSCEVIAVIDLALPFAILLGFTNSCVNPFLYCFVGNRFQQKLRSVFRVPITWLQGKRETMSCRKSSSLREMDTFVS

Rattus norvegicus [1] = test: Compound was tested for inhibition of angiotensin II induced pressor response after intravenous administration in rats.; assay type: functional
Rattus norvegicus [2] = test: Tested for percent inhibition of compound against angiotensin II induced pressor response after 3 umol/kg intravenous administration at 70 min in rats; assay type: functional
Rattus norvegicus [3] = species: Rattus norvegicus; test: Tested for depression of contractions elicited by angiotensin II receptor in isolated rat aorta; assay type: functional
Rattus norvegicus [4] = test: Tested for percent inhibition of compound against angiotensin II induced pressor response after 1 umol/kg intravenous administration in rats; inactive; assay type: functional

Row | Compound | Ki (Angiotensin II receptor) [nM] | ED50 (Rattus norvegicus [1]) [µmol/kg] | inhibition in vivo at 3 µmol/kg (Rattus norvegicus [2]) [%] | Kb (Rattus norvegicus [3]) [nM] | inhibition in vivo at 1 µmol/kg (Rattus norvegicus [4]) [%]
1 | CCCCc1c(Cc2ccc(-c3ccccc3-c3nn[nH]n3)cc2)[n+]([O-])c2ccccc2[n+]1[O-] | 2.6 | 1.8 | 0 | 2.1 | 
2 | CCCCc1nc2ccccc2[n+]([O-])c1Cc1ccc(-c2ccccc2-c2nn[nH]n2)cc1 | 2.1 |  |  | 5.3 | 
3 | CCCCc1c(Cc2ccc(-c3ccccc3-c3nn[nH]n3)cc2)nc2ccccc2[n+]1[O-] | 29 |  |  | 52 | 
4 | CCCCc1nc2cccc(C(=O)O)c2nc1Cc1ccc(-c2ccccc2-c2nn[nH]n2)cc1 | 6.9 |  |  | 0.49 | 7
5 | CCCCc1nc2ccccc2nc1Cc1ccc(-c2ccccc2-c2nn[nH]n2)cc1 | 7 |  |  | 32 | 

Source: ChEMBL document CHEMBL1126817, “Synthesis, Biological Properties, and Structure-Activity Relationships of Quinoxaline Angiotensin II Receptor Antagonists” (Bioorg Med Chem Lett, 1993)
